Tested on: HBV
Assay: HepAD38 antiviral assay: reduction of viral product accumulation (virion DNA by qPCR, HBsAg or HBeAg by ELISA)
Format: cell-based, hepatitis B virus
Settings: Hepatitis B virus, 120 h; HepAD38 cells, five days after compound addition; 50% reduction of viral product vs no drug controls; read-out: HepAD38 EC50
Method: Methods: HepAD38 cells are maintained as previously reported (Ladner et al, Antimicrob. Agents Chemother. 1997, […], 1715). Briefly, cells are passaged upon attaining confluency in DMEM/F12 media in the presence of 10% FBS, Penn/Strep, 250 μg/mL G418, and 1 ug/ml tetracycline. Novel compounds are screened by first washing cells three times with PBS to remove tetracycline, and plating in 96 well plates at 35,000 cells/well. Compounds dissolved in DMSO are then diluted 1:200 into wells containing cells. Five days after compound addition, material is harvested for analysis. For an extended 8 days analysis, cells are plated and treated as described above, but media and compound are refreshed on d2 and d5 post initial treatment.
On harvest day, virion DNA is obtained by lysing with Sidestep Lysis and Stabilization Buffer and then quantified via quantitative real time PCR. Commercially available ELISA kits are used to quantitate the viral proteins HBsAg (Alpco) or HbeAg (US Biological) by following the manufacturer's recommended protocol after diluting samples to match the linear range of their respective assays.

| Structure (SMILES) | EC50 [nM] |
| --- | --- |
| COCC(COC)OC[C@]1(O)C2CCC1C[C@@H](S(=O)(=O)c1cc(C(=O)Nc3cc(F)c(F)c(F)c3)ccc1Cl)C2 [Example 121] | < 104 |
| CCCCc1cc(Cl)c(S(=O)(=O)[C@H]2CC3CCC(C2)[C@@]3(C)O)cc1C(=O)Nc1ccc(F)c(F)c1 [Example 103] | < 104 |
| CC[C@@H](O)[C@H](O)[C@]1(O)C2CCC1C[C@@H](S(=O)(=O)c1cc(C(=O)Nc3ccc(F)c(F)c3)ccc1Cl)C2 (racemic) [Example 333] | < 104 |
| C[C@H](O)C(=O)O[C@@H](C)C(=O)NC[C@]1(O)C2CCC1C[C@@H](S(=O)(=O)c1cc(C(=O)Nc3cc(F)c(F)c(F)c3)ccc1Cl)C2 (single isomer, unassigned) [Example 106] | < 104 |
| O=C(Nc1cc(F)c(F)c(F)c1)c1ccc(Cl)c(S(=O)(=O)[C@H]2CC3CCC(C2)[C@]3(O)CO[C@@H]2C[C@@H](O)[C@@H](O)C2)c1 [Example 35] | < 104 |
| O=C(Nc1cc(F)c(F)c(F)c1)c1ccc(Cl)c(S(=O)(=O)C2CC3CCC(C2)C3C(O)C(O)CO)c1 (stereo not drawn) [Example 20] | < 104 |
| O=C(Nc1ccc(F)c(F)c1)c1ccc(Cl)c(S(=O)(=O)[C@H]2C[C@H](CO)C2)c1 [Example 252a] | > 200 |
| C[C@H](O)[C@H](O)[C@]1(O)C2CCC1C[C@@H](S(=O)(=O)c1cc(C(=O)Nc3ccc(F)c(F)c3)ccc1Cl)C2 (single isomer, unassigned) [Example 181] | < 104 |
| Cc1ccc(NC(=O)c2ccc(Cl)c(S(=O)(=O)[C@H]3CC4CCC(C3)[C@@]4(C)O)c2)cc1F [Example 44] | > 200 |
| O=C(Nc1ccc(F)c(F)c1)c1ccc(Cl)c(S(=O)(=O)[C@H]2CC3CCC(C2)[C@]3(O)C(O)c2ccncc2)c1 (stereo partly drawn) [Example 286] | 100 to 200 |
| O=C(Nc1cc(F)c(F)c(F)c1)c1ccc(Cl)c(S(=O)(=O)[C@H]2CC3CCC(C2)[C@]3(O)CNC(=O)[C@H]2CCCO2)c1 [Example 15] | < 104 |
| COC(=O)N[C@H](C)C(=O)NC[C@]1(O)C2CCC1C[C@@H](S(=O)(=O)c1cc(C(=O)Nc3cc(F)c(F)c(F)c3)ccc1Cl)C2 [Example 86] | < 104 |
| O=C(Nc1cc(F)c(F)c(F)c1)c1ccc(Cl)c(S(=O)(=O)[C@H]2CC3CCC(C2)[C@]3(O)COC[C@H](O)C(O)CO)c1 (stereo partly drawn) [Example 60] | 100 to 200 |
| O=C(Nc1ccc(F)c(F)c1)c1ccc(Cl)c(S(=O)(=O)C2CC(C(=O)NCCO)C2)c1 (stereo not drawn) [Example 254] | > 200 |
| O=C(Nc1ccc(F)c(F)c1)c1ccc(Cl)c(S(=O)(=O)CC2CCC(F)(F)CC2)c1 [Example 219] | > 200 |
| COc1cc(NC(=O)c2ccc(Cl)c(S(=O)(=O)[C@H]3CC4CCC(C3)[C@@]4(C)O)c2)ccc1F [Example 104] | > 200 |
| O=C(Nc1ccc(F)c(F)c1)c1ccc(Cl)c(S(=O)(=O)[C@@H]2CC3CC[C@@H](C2)[C@@]3(O)Cn2ccc(=O)[nH]c2=O)c1 [Example 305] | < 104 |
| O=C(Nc1ccc(F)c(F)c1)c1ccc(Cl)c(S(=O)(=O)CC2CC(O)(C(O)CO)C2)c1 (stereo not drawn) [Example 207] | > 200 |
| O=C(Nc1ccc(F)c(F)c1)c1ccc(Cl)c(S(=O)(=O)CC2CC=CCC2)c1 (stereo not drawn) [Example 227] | > 200 |

| Structure (SMILES) | EC50 [nM] |
| --- | --- |
| O=C(Nc1ccc(F)c(F)c1)c1ccc(Cl)c(S(=O)(=O)[C@H]2CC3CCC(C2)[C@]3(O)CNC(=O)C2CC2)c1 [Example 158] | < 104 |
| Cc1cccc([C@@H](O)[C@@]2(O)C3CC[C@H]2C[C@H](S(=O)(=O)c2cc(C(=O)Nc4ccc(F)c(F)c4)ccc2Cl)C3)n1 [Example 294b] | < 104 |
| COC(=O)CCNC(=O)CC1(O)CC(S(=O)(=O)c2cc(C(=O)Nc3ccc(F)c(F)c3)ccc2Cl)C1 (stereo not drawn) [Example 248] | > 200 |
| O=C(Nc1ccc(F)c(F)c1)c1ccc(Cl)c(S(=O)(=O)CC2CC(O)(CO)C2)c1 (stereo not drawn) [Example 200] | > 200 |
| CC(C)(O)C[C@]1(O)CC[C@@H](CS(=O)(=O)c2cc(C(=O)Nc3ccc(F)c(F)c3)ccc2Cl)CC1 [Example 228] | > 200 |
| O=C(Nc1cc(F)c(F)c(F)c1)c1ccc(Cl)c(S(=O)(=O)[C@@H]2CC3CC[C@@H](C2)[C@@]3(O)CNC(=O)C2CC=CC2)c1 [Example 22] | < 104 |
| CC(C)(O)C(O)CNC(=O)C[C@]1(O)C2CCC1C[C@@H](S(=O)(=O)c1cc(C(=O)Nc3cc(F)c(F)c(F)c3)ccc1Cl)C2 (stereo partly drawn) [Example 56] | 100 to 200 |
| O=C(Nc1ccc(F)c(F)c1)c1ccc(Cl)c(S(=O)(=O)[C@H]2CC3CCC(C2)[C@]3(O)C(O)C(O)CN2CCOC2=O)c1 (stereo partly drawn) [Example 313] | < 104 |
| O=C(Nc1ccc(F)c(F)c1)c1ccc(Cl)c(S(=O)(=O)[C@H]2CC3CCC(C2)[C@]3(O)C(O)Cc2cccnc2)c1 (stereo partly drawn) [Example 318] | > 200 |
| CC(C)N(C)[C@H]1C2CCC1C[C@H](S(=O)(=O)c1cc(C(=O)Nc3ccc(F)c(F)c3)ccc1Cl)C2 [Example 307] | 100 to 200 |
| C[C@@]1(O)C2CC[C@H]1C[C@H](S(=O)(=O)c1cc(C(=O)Nc3ccc(F)c(C(F)(F)F)c3)ccc1Cl)C2 [Example 31] | 100 to 200 |
| O=C(Nc1ccc(F)c(F)c1)c1ccc(Cl)c(S(=O)(=O)[C@@H]2CC3CC[C@@H](C2)[C@@]3(O)C(O)c2ccc3ccccc3n2)c1 (stereo partly drawn) [Example 301] | < 104 |
| O=C(Nc1cc(F)c(F)c(F)c1)c1ccc(Cl)c(S(=O)(=O)[C@H]2C3CC[C@H]2C[C@](O)(C(O)C(O)CO)C3)c1 (mixture of isomers) [Example 64] | 100 to 200 |
| C[C@]1(O)C2CCC1C[C@@H](S(=O)(=O)c1cc(C(=O)Nc3ncccn3)ccc1Cl)C2 [Example 217] | > 200 |
| O=C(Nc1ccc(F)c(F)c1)c1ccc(Cl)c(S(=O)(=O)CC2CCC3(CC2)OCCO3)c1 [Example 216] | 100 to 200 |
| CC(C)(O)CC(=O)NC[C@]1(O)C2CCC1C[C@@H](S(=O)(=O)c1cc(C(=O)Nc3ccc(F)c(F)c3)ccc1Cl)C2 [Example 170] | < 104 |
| O=C(Nc1cc(F)c(F)c(F)c1)c1ccc(Cl)c(S(=O)(=O)[C@H]2CC3CCC(C2)[C@]3(O)COCC(O)CO)c1 (stereo partly drawn) [Example 63] | < 104 |
| O=C(Nc1ccc(F)c(F)c1)c1ccc(Cl)c(S(=O)(=O)[C@H]2CC3CCC(C2)[C@]3(O)[C@@H](O)c2ccc(F)cn2)c1 (single isomer, unassigned) [Example 291a] | < 104 |
| O=C(Nc1ccc(F)c(F)c1)c1ccc(Cl)c(S(=O)(=O)[C@H]2CC3CCC(C2)[C@]3(O)[C@@H](O)CO)c1 (single isomer, unassigned) [Example 175] | < 104 |

| Structure (SMILES) | EC50 [nM] |
| --- | --- |
| COC(=O)[C@H]1C[C@H](S(=O)(=O)c2cc(C(=O)Nc3ccc(F)c(F)c3)ccc2Cl)C1 [Example 250a] | > 200 |
| O=C(Nc1ccc(F)c(F)c1)c1ccc(Cl)c(S(=O)(=O)C2CC(C(=O)NCCCO)C2)c1 (stereo not drawn) [Example 258] | > 200 |
| CC(O)C(O)CNC(=O)[C@]1(O)C2CCC1C[C@@H](S(=O)(=O)c1cc(C(=O)Nc3cc(F)c(F)c(F)c3)ccc1Cl)C2 (mixture of isomers) [Example 38] | > 200 |
| O=C(Nc1ccc(F)c(F)c1)c1ccc(Cl)c(S(=O)(=O)C2CC(C(=O)O)C2)c1 (stereo not drawn) [Example 251] | > 200 |
| Cn1nccc1C(O)[C@]1(O)C2CCC1C[C@@H](S(=O)(=O)c1cc(C(=O)Nc3ccc(F)c(F)c3)ccc1Cl)C2 (stereo partly drawn) [Example 288] | < 104 |
| COC(=O)N1C[C@H](O)C[C@H]1C(=O)NC[C@]1(O)C2CCC1C[C@@H](S(=O)(=O)c1cc(C(=O)Nc3cc(F)c(F)c(F)c3)ccc1Cl)C2 [Example 8] | > 200 |
| O=C1NC(C(=O)NC[C@]2(O)C3CCC2C[C@@H](S(=O)(=O)c2cc(C(=O)Nc4cc(F)c(F)c(F)c4)ccc2Cl)C3)CO1 (stereo partly drawn) [Example 97] | 100 to 200 |
| C[C@H](O)COCC1(O)CCC(CS(=O)(=O)c2cc(C(=O)Nc3ccc(F)c(F)c3)ccc2Cl)CC1 (stereo partly drawn) [Example 198] | 100 to 200 |
| Cc1ccnc([C@@H](O)[C@@]2(O)C3CC[C@H]2C[C@H](S(=O)(=O)c2cc(C(=O)Nc4ccc(F)c(F)c4)ccc2Cl)C3)c1 [Example 296b] | < 104 |
| C[C@]1(O)C2CCC1C[C@@H](S(=O)(=O)c1cc(C(=O)Nc3ccc(C#N)c(F)c3)ccc1Cl)C2 [Example 45] | > 200 |
| COC(=O)CNC(=O)C[C@]1(O)C2CCC1C[C@@H](S(=O)(=O)c1cc(C(=O)Nc3cc(F)c(F)c(F)c3)ccc1Cl)C2 [Example 119] | > 200 |
| C[C@@H](O)COCC1(O)CCC(CS(=O)(=O)c2cc(C(=O)Nc3ccc(F)c(F)c3)ccc2Cl)CC1 (stereo partly drawn) [Example 197] | > 200 |
| O=C(C[C@]1(O)C2CCC1C[C@@H](S(=O)(=O)c1cc(C(=O)Nc3cc(F)c(F)c(F)c3)ccc1Cl)C2)NC1COC1 [Example 110] | < 104 |
| O=C(Nc1ccc(F)c(F)c1)c1ccc(Cl)c(S(=O)(=O)CC2CCC(O)(CO)CC2)c1 (stereo not drawn) [Example 194] | 100 to 200 |
| C[C@@H](O)COCC1(O)CC(CS(=O)(=O)c2cc(C(=O)Nc3ccc(F)c(F)c3)ccc2Cl)C1 (stereo partly drawn) [Example 209] | > 200 |
| C[C@@H](O)[C@H](O)[C@]1(O)C2CCC1C[C@@H](S(=O)(=O)c1cc(C(=O)Nc3cc(F)c(F)c(F)c3)ccc1Cl)C2 (single isomer, unassigned) [Example 109] | < 104 |
| O=C(Nc1ccc(F)c(F)c1)c1ccc(Cl)c(S(=O)(=O)[C@H]2CC3CCC(C2)[C@]3(O)C(O)Cc2ncc[nH]2)c1 (stereo partly drawn) [Example 316] | > 200 |
| O=C(Nc1ccc(F)c(F)c1)c1ccc(Cl)c(S(=O)(=O)[C@H]2CC3CCC(C2)[C@]3(O)C(O)c2ccccc2)c1 (stereo partly drawn) [Example 283] | 100 to 200 |
| O=C(Nc1ccc(F)c(F)c1)c1ccc(Cl)c(S(=O)(=O)[C@H]2CC3CCC(C2)[C@H]3O)c1 (single isomer, unassigned) [Example 206] | 100 to 200 |
